Experiments:
human kinase Mps-1 = human kinase Mps-1 (Homo sapiens (Human), UniProt P33981); test: Mps-1 kinase assay (TR-FRET); type: biochemical; details: 10 μM ATP; read-out: Mps1 avg (IC50 [mol/l])
Procedure, shortened: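 GST-tagged full-length human Mps-1 (~0.5 nM) preincubated 15 min with compound, then reacted 60 min at 22 °C with 10 μM ATP and 1 μM biotinylated peptide in Hepes pH 7.7 buffer. Phosphoproduct detected by TR-FRET (Eu anti-phospho-Ser/Thr, SA-XLent); 665/620 ratio normalised to no-inhibitor and no-enzyme controls.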

[1] = test system: spindle assembly checkpoint; test: SAC-Formation - Paclitaxel-Induced Assay; type: cell-based; details: Homo sapiens; HeLa cells, paclitaxel 0.05 μM, 24 h, phosphorylated histone H3 on serine 10
Procedure, shortened: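 HeLa cells were plated overnight, then given paclitaxel (0.05 μM final) plus compound (0.005-20 μM, 0.5% DMSO) for 24 h at 37° C. Fixed cells were stained for phospho-histone H3 Ser10 and with Hoechst, then imaged to give mitotic index. A fall in mitotic cells marks SAC breakthrough, and values were fit with a four-parameter Hill equation.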

human kinase Mps-1, sequence (P33981 whole entry): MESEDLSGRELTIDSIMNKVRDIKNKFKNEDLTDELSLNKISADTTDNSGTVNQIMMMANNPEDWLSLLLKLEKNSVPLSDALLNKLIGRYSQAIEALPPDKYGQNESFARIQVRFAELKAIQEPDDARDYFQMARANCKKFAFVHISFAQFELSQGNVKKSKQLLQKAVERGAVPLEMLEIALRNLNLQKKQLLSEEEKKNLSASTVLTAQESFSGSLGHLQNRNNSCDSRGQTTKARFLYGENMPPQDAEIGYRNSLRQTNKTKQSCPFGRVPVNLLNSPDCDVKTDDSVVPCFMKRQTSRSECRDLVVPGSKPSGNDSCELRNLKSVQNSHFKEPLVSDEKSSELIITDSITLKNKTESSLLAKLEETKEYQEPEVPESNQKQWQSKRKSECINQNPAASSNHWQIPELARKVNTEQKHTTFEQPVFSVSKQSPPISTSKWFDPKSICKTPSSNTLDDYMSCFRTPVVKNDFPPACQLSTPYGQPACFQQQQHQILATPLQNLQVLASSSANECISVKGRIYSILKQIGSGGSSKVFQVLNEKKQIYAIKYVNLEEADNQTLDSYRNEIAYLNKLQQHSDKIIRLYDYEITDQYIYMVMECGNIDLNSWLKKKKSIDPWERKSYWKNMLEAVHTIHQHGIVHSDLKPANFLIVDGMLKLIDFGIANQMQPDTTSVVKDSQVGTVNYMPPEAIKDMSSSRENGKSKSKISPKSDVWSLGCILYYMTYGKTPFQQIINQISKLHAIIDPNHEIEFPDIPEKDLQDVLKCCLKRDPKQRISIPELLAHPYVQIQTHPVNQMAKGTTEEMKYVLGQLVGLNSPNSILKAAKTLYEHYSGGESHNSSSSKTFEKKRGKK

SMILES	IC50 (human kinase Mps-1) [nM]	IC50 [1] [nM]
Cc1nsc(Nc2ccc(C#N)cn2)c1C(=O)Nc1ccc(Cl)c(Cl)c1 [Example 62, 5-[(5-Cyanopyridin-2-yl)amino]-N-(3,4-dichlorophenyl)-3-methyl-1,2-thiazole-4-carboxamide]	> 20000	33
CNC(=O)c1ccc(Nc2snc(C)c2C(=O)Nc2ccc(F)c(F)c2)nn1 [Example 80, 6-({4-[(3,4-Difluorophenyl)carbamoyl]-3-methyl-1,2-thiazol-5-yl}amino)-N-methylpyridazine-3-carboxamide]	> 20000	4700
COc1ccc(NC(=O)c2c(C)nsc2Nc2cncc(C(F)(F)F)n2)cn1 [Example 84, N-(6-methoxypyridin-3-yl)-3-methyl-5-{[6-(trifluoromethyl)pyrazin-2-yl]amino}-1,2-thiazole-4-carboxamide]	> 20000	65
Cc1cncc(Nc2snc(C)c2C(=O)Nc2ccc(F)c(F)c2)n1 [Example 69]	> 20000	10
Cc1nsc(Nc2cncc(C(F)(F)F)n2)c1C(=O)Nc1ccc(F)c(F)c1 [Example 82, N-(3,4-Difluorophenyl)-3-methyl-5-{[6-(trifluoromethyl)pyrazin-2-yl]amino}-1,2-thiazole-4-carboxamide]	> 20000	77
COC(=O)c1cncc(Nc2snc(C)c2C(=O)Nc2ccc(F)c(F)c2)n1 [Example 66, Methyl 6-({4-[(3,4-difluorophenyl)carbamoyl]-3-methyl-1,2-thiazol-5-yl}amino)-pyrazine-2-carboxylate]	> 20000	90
Cc1nsc(Nc2cnc3cc(C(F)(F)F)ccc3n2)c1C(=O)Nc1ccc(Cl)c(F)c1 [Example 68, N-(4-Chloro-3-fluorophenyl)-3-methyl-5-{[6-(trifluoromethyl)quinoxalin-2-yl]amino}-1,2-thiazole-4-carboxamide]	> 20000	30
Cc1nsc(Nc2cncc(-n3cccn3)n2)c1C(=O)Nc1ccc(Cl)c(F)c1 [Example 67, N-(4-Chloro-3-fluorophenyl)-3-methyl-5-{[6-(1H-pyrazol-1-yl)pyrazin-2-yl]amino}-1,2-thiazole-4-carboxamide]	> 20000	22
COc1ccc(NC(=O)c2c(C)nsc2Nc2cnc(C(F)(F)F)cn2)cn1 [Example 85, N-(6-methoxypyridin-3-yl)-3-methyl-5-{[5-(trifluoromethyl)pyrazin-2-yl]amino}-1,2-thiazole-4-carboxamide]	> 20000	52
CCc1ccccc1NC(=O)c1c(C)nsc1Nc1ccncn1 [Example 2, N-(2-Ethylphenyl)-3-methyl-5-(pyrimidin-4-ylamino)-1,2-thiazole-4-carboxamide]	> 20000	11000
CCNc1cncc(Nc2snc(C)c2C(=O)Nc2ccc(F)c(F)c2)n1 [Example 78, N-(3,4-Difluorophenyl)-5-{[6-(ethylamino)pyrazin-2-yl]amino}-3-methyl-1,2-thiazole-4-carboxamide]	16000	910
COc1ccc(NC(=O)c2c(C)nsc2Nc2nc3ccc(C)cc3s2)cn1 [Example 90, N-(6-Methoxypyridin-3-yl)-3-methyl-5-[(6-methyl-1,3-benzothiazol-2-yl)amino]-1,2-thiazole-4-carboxamide]	> 20000	2300
Cc1nsc(Nc2cnc(Br)cn2)c1C(=O)Nc1ccc(F)c(F)c1 [Example 77, 5-[(5-Bromopyrazin-2-yl)amino]-N-(3,4-difluorophenyl)-3-methyl-1,2-thiazole-4-carboxamide]	> 20000	8.3
COc1ccc(NC(=O)c2c(C)nsc2Nc2cnc3ccccc3n2)cn1 [Example 94, N-(6-Methoxypyridin-3-yl)-3-methyl-5-(quinoxalin-2-ylamino)-1,2-thiazole-4-carboxamide]	> 20000	5600
Cc1nsc(Nc2cnc(Cl)cn2)c1C(=O)Nc1ccc(F)c(F)c1 [Example 74, 5-[(5-Chloropyrazin-2-yl)amino]-N-(3,4-difluorophenyl)-3-methyl-1,2-thiazole-4-carboxamide]	> 20000	31
CCNC(=O)c1cncc(Nc2snc(C)c2C(=O)Nc2ccc(F)c(F)c2)n1 [Example 73, 6-({4-[(3,4-Difluorophenyl)carbamoyl]-3-methyl-1,2-thiazol-5-yl}amino)-N-ethylpyrazine-2-carboxamide]	> 20000	63
CCc1ccccc1NC(=O)c1c(C)nsc1Nc1cnc2cc(Cl)ccc2n1 [Example 86, 5-[(6-Chloroquinoxalin-2-yl)amino]-N-(2-ethylphenyl)-3-methyl-1,2-thiazole-4-carboxamide]	> 20000	490
CCc1ccccc1NC(=O)c1c(C)nsc1Nc1ncccc1C(F)(F)F [Example 3, N-(2-Ethylphenyl)-3-methyl-5-{[3-(trifluoromethyl)pyridin-2-yl]amino}-1,2-thiazole-4-carboxamide]	> 20000	5100
Cc1nsc(Nc2cnccn2)c1C(=O)Nc1ccc(F)c(F)c1 [Example 65, N-(3,4-Difluorophenyl)-3-methyl-5-(pyrazin-2-ylamino)-1,2-thiazole-4-carboxamide]	> 20000	690
Cc1nsc(Nc2cnc3cc(C(F)(F)F)ccc3n2)c1C(=O)Nc1ccc(Cl)c(Cl)c1 [Example 61, N-(3,4-Dichlorophenyl)-3-methyl-5-{[6-(trifluoromethyl)quinoxalin-2-yl]amino}-1,2-thiazole-4-carboxamide]	> 20000	340
CCOC(=O)c1sc(Nc2snc(C)c2C(=O)Nc2ccc(Cl)c(F)c2)nc1C [Example 95, Ethyl 2-({4-[(4-chloro-3-fluoro-phenyl)carbamoyl]-3-methyl-1,2-thiazol-5-yl}amino)-4-methyl-1,3-thiazole-5-carboxylate]	> 20000	510
Cc1nsc(Nc2cnc3cc(C(F)(F)F)ccc3n2)c1C(=O)Nc1ccc(F)c(F)c1 [Example 60, N-(3,4-Difluorophenyl)-3-methyl-5-{[6-(trifluoromethyl)quinoxalin-2-yl]amino}-1,2-thiazole-4-carboxamide]	> 20000	42
COc1ccc(NC(=O)c2c(C)nsc2Nc2nc3cccnc3s2)cn1 [Example 89, N-(6-Methoxypyridin-3-yl)-3-methyl-5-([1,3]thiazolo[5,4-b]pyridin-2-ylamino)-1,2-thiazole-4-carboxamide]	> 20000	2300
Cc1nsc(Nc2ccc(C(F)(F)F)nn2)c1C(=O)Nc1ccc(F)c(F)c1 [Example 83, N-(3,4-Difluorophenyl)-3-methyl-5-{[6-(trifluoromethyl)pyridazin-3-yl]amino}-1,2-thiazole-4-carboxamide]	> 20000	9.3
CNC(=O)c1cnc(Nc2snc(C)c2C(=O)Nc2ccc(F)c(F)c2)cn1 [Example 75, 5-({4-[(3,4-Difluorophenyl)carbamoyl]-3-methyl-1,2-thiazol-5-yl}amino)-N-methylpyrazine-2-carboxamide]	> 20000	58
Cc1nsc(Nc2nc3c(C(F)(F)F)ccnc3s2)c1C(=O)Nc1ccc(F)c(F)c1 [Example 58, N-(3,4-Difluorophenyl)-3-methyl-5-{[7-(trifluoromethyl)[1,3]thiazolo[5,4-b]pyridin-2-yl]amino}-1,2-thiazole-4-carboxamide]	19000	290
CCc1ccccc1NC(=O)c1c(C)nsc1Nc1cc(C#N)ccn1 [Example 4, 5-[(4-Cyanopyridin-2-yl)amino]-N-(2-ethylphenyl)-3-methyl-1,2-thiazole-4-carboxamide]	> 20000	1700
CCc1cncc(Nc2snc(C)c2C(=O)Nc2ccc(F)c(F)c2)n1 [Example 76, N-(3,4-Difluorophenyl)-5-[(6-ethylpyrazin-2-yl)amino]-3-methyl-1,2-thiazole-4-carboxamide]	> 20000	13

Source: US9682995B2, “Amino-substituted isothiazoles” (BAYER PHARMA AKTIENGESELLSCHAFT, priority 2013, dated 2017)
